Assays:
E. coli mL308 225 = assay: In Vitro Anti-Bacterial Activity Assay (MIC), gram negative; format: cell-based; settings: Escherichia coli, ML308225, 18 h, gram negative bacteria; read-out: Antibiotic Activity Gram − (MIC)
S. aureus RN450 = assay: In Vitro Anti-Bacterial Activity Assay (MIC), gram positive; format: cell-based; settings: Staphylococcus aureus, RN450, 18 h, gram positive bacteria; read-out: Antibiotic Activity Gram + (MIC)

Compound: COc1cccc(C#Cc2cc(N(C)C)c3c(c2O)C(=O)C2=C(O)[C@]4(O)C(=O)C(C(N)=O)=C(O)[C@@H](N(C)C)[C@@H]4C[C@@H]2C3)c1
- MIC (E. coli mL308 225): < 4 µg/mL
- MIC (S. aureus RN450): < 4 µg/mL

Compound: CN(C)c1cc(CCCNS(C)(=O)=O)c(O)c2c1C[C@H]1C[C@H]3[C@H](N(C)C)C(O)=C(C(N)=O)C(=O)[C@@]3(O)C(O)=C1C2=O
- MIC (E. coli mL308 225): > 4 µg/mL
- MIC (S. aureus RN450): > 4 µg/mL

Compound: CN(C)c1cc(CCc2ccc(F)cc2)c(O)c2c1C[C@H]1C[C@H]3[C@H](N(C)C)C(O)=C(C(N)=O)C(=O)[C@@]3(O)C(O)=C1C2=O
- MIC (E. coli mL308 225): < 4 µg/mL
- MIC (S. aureus RN450): < 4 µg/mL

Compound: CCCCOC(=O)Nc1cc(N(C)C)c2c(c1O)C(=O)C1=C(O)[C@]3(O)C(=O)C(C(N)=O)=C(O)[C@@H](N(C)C)[C@@H]3C[C@@H]1C2
- MIC (E. coli mL308 225): < 4 µg/mL
- MIC (S. aureus RN450): < 4 µg/mL

Compound: CN(C)c1cc(C#CC2=CCCC2)c(O)c2c1C[C@H]1C[C@H]3[C@H](N(C)C)C(O)=C(C(N)=O)C(=O)[C@@]3(O)C(O)=C1C2=O
- MIC (E. coli mL308 225): < 4 µg/mL
- MIC (S. aureus RN450): < 4 µg/mL

Compound: CCCCC#Cc1cc(N(C)C)c2c(c1O)C(=O)C1=C(O)[C@]3(O)C(=O)C(C(N)=O)=C(O)[C@@H](N(C)C)[C@@H]3C[C@@H]1C2
- MIC (E. coli mL308 225): < 4 µg/mL
- MIC (S. aureus RN450): < 4 µg/mL

Compound: CCc1cc(C(C)(C)C)c(O)c2c1C[C@H]1C[C@H]3[C@H](N(C)C)C(O)=C(C(=O)NC(C)(C)C)C(=O)[C@@]3(O)C(O)=C1C2=O
- MIC (E. coli mL308 225): > 4 µg/mL
- MIC (S. aureus RN450): < 4 µg/mL

Compound: CN(C)[C@@H]1C(O)=C(C(N)=O)C(=O)[C@@]2(O)C(O)=C3C(=O)c4c(O)ccc(-c5ccccc5)c4C[C@H]3C[C@@H]12
- MIC (E. coli mL308 225): < 4 µg/mL
- MIC (S. aureus RN450): < 4 µg/mL

Compound: CN(C)[C@@H]1C(O)=C(C(N)=O)C(=O)[C@@]2(O)C(O)=C3C(=O)c4c(O)c(-c5ccc6c(c5)OCO6)cc(-c5ccc6c(c5)OCO6)c4C[C@H]3C[C@@H]12
- MIC (E. coli mL308 225): > 4 µg/mL
- MIC (S. aureus RN450): < 4 µg/mL

Compound: CN(C)c1cc(NCc2ccccc2C[C@H]2O[C@@H](CO)[C@@H](O)[C@@H](O)[C@H]2O)c(O)c2c1C[C@H]1C[C@H]3[C@H](N(C)C)C(O)=C(C(N)=O)C(=O)[C@@]3(O)C(O)=C1C2=O
- MIC (E. coli mL308 225): > 4 µg/mL
- MIC (S. aureus RN450): > 4 µg/mL

Compound: CCCCCC(=O)c1ccc(O)c2c1C[C@H]1C[C@H]3[C@H](N(C)C)C(O)=C(C(N)=O)C(=O)[C@@]3(O)C(O)=C1C2=O
- MIC (E. coli mL308 225): < 4 µg/mL
- MIC (S. aureus RN450): < 4 µg/mL

Compound: CN(C)c1cc(NCc2ccc(OC(F)(F)F)cc2)c(O)c2c1C[C@H]1C[C@H]3[C@H](N(C)C)C(O)=C(C(N)=O)C(=O)[C@@]3(O)C(O)=C1C2=O
- MIC (E. coli mL308 225): > 4 µg/mL
- MIC (S. aureus RN450): < 4 µg/mL

Compound: CN(C)c1cc(NCC2CCCCC2)c(O)c2c1C[C@H]1C[C@H]3[C@H](N(C)C)C(O)=C(C(N)=O)C(=O)[C@@]3(O)C(O)=C1C2=O
- MIC (E. coli mL308 225): > 4 µg/mL
- MIC (S. aureus RN450): > 4 µg/mL

Compound: COCCOC(=O)NCc1cc(N(C)C)c2c(c1O)C(=O)C1=C(O)[C@]3(O)C(=O)C(C(N)=O)=C(O)[C@@H](N(C)C)[C@@H]3C[C@@H]1C2
- MIC (E. coli mL308 225): > 4 µg/mL
- MIC (S. aureus RN450): < 4 µg/mL

Compound: CN(C)c1cc(CNC(=O)Nc2ccc3c(c2)OCO3)c(O)c2c1C[C@H]1C[C@H]3[C@H](N(C)C)C(O)=C(C(N)=O)C(=O)[C@@]3(O)C(O)=C1C2=O
- MIC (E. coli mL308 225): > 4 µg/mL
- MIC (S. aureus RN450): < 4 µg/mL

Compound: CN(C)[C@@H]1C(O)=C(C(N)=O)C(=O)[C@@]2(O)C(O)=C3C(=O)c4c(O)ccc(C#CCCC#Cc5ccc(O)c6c5C[C@@]5(C)C[C@@]7(C)[C@H](N(C)C)C(O)C(C(N)=O)C(=O)[C@@]7(O)C(O)=C5C6=O)c4C[C@@]3(C)C[C@@]12C (stereo partly drawn)
- MIC (E. coli mL308 225): > 4 µg/mL
- MIC (S. aureus RN450): > 4 µg/mL

Compound: COc1ccc(CNCCc2ccccc2)cc1-c1ccc(O)c2c1C[C@H]1C[C@H]3[C@H](N(C)C)C(O)=C(C(N)=O)C(=O)[C@@]3(O)C(O)=C1C2=O
- MIC (E. coli mL308 225): < 4 µg/mL
- MIC (S. aureus RN450): < 4 µg/mL

Compound: CC#Cc1cc(C#CC)c2c(c1O)C(=O)C1=C(O)[C@]3(O)C(=O)C(C(N)=O)=C(O)[C@@H](N(C)C)[C@@H]3C[C@@H]1C2
- MIC (E. coli mL308 225): > 4 µg/mL
- MIC (S. aureus RN450): > 4 µg/mL

— US20150141381A1, “TETRACYCLINE COMPOUNDS HAVING TARGET THERAPEUTIC ACTIVITIES” (Paratek Pharmaceuticals, Inc., priority 2001, published 2015)
